According to patent US10947188B2, “Small molecule ferroptosis inducers” (THE TRUSTEES OF COLUMBIA UNIVERSITY IN THE CITY OF NEW YORK, priority 2016, dated 2021):

System: BJeLR
Assay: Modulatory profiling: Alamar Blue viability, lethal compound cotreated with death modulator (EC50, AUC)
Assay type: cell-based, human
Set-up: AUC, modulator BJ.Gd3+ / AUC, modulator BJ.LNAME / AUC, modulator BJ.Lmin / AUC, modulator BJ.3MA / AUC, modulator BJ.ALLN / AUC, modulator BJ.Boc D / AUC, modulator BJ.CHX / AUC, modulator BJ.Co2+ / AUC, modulator BJ.Nec-1 / AUC, modulator BJ.Pepstatin / AUC, modulator BJ.TLCK / AUC, modulator BJ.atoc / AUC, modulator BJ.trolox / AUC, modulator BJ.zVAD: unit not given beside the values
Conditions: BJeLR cells, modulatory profile value (AUC); for AUC, modulator BJ.3MA: lethal compound cotreated with modulator 3MA; for AUC, modulator BJ.ALLN: lethal compound cotreated with modulator ALLN; for AUC, modulator BJ.Boc D: lethal compound cotreated with modulator Boc D; for AUC, modulator BJ.CHX: lethal compound cotreated with modulator CHX; for AUC, modulator BJ.Co2+: lethal compound cotreated with modulator Co2+; for AUC, modulator BJ.DPQ: lethal compound cotreated with modulator DPQ; for AUC, modulator BJ.Gd3+: lethal compound cotreated with modulator Gd3+; for AUC, modulator BJ.LNAME: lethal compound cotreated with modulator LNAME; for AUC, modulator BJ.Lmin/NAD+: lethal compound cotreated with modulator Lmin/NAD+; for AUC, modulator BJ.Lmin: lethal compound cotreated with modulator Lmin; for AUC, modulator BJ.NAD+: lethal compound cotreated with modulator NAD+; for AUC, modulator BJ.NMMA: lethal compound cotreated with modulator NMMA; for AUC, modulator BJ.Nec-1: lethal compound cotreated with modulator Nec-1; for AUC, modulator BJ.Pepstatin: lethal compound cotreated with modulator Pepstatin; for AUC, modulator BJ.TLCK: lethal compound cotreated with modulator TLCK; for AUC, modulator BJ.atoc: lethal compound cotreated with modulator atoc; for AUC, modulator BJ.trolox: lethal compound cotreated with modulator trolox; for AUC, modulator BJ.zVAD: lethal compound cotreated with modulator zVAD

SMILES | AUC, modulator BJ.3MA | AUC, modulator BJ.ALLN | AUC, modulator BJ.Boc D | AUC, modulator BJ.CHX | AUC, modulator BJ.Co2+ | AUC, modulator BJ.DPQ | AUC, modulator BJ.Gd3+ | AUC, modulator BJ.LNAME | AUC, modulator BJ.Lmin/NAD+ | AUC, modulator BJ.Lmin | AUC, modulator BJ.NAD+ | AUC, modulator BJ.NMMA | AUC, modulator BJ.Nec-1 | AUC, modulator BJ.Pepstatin | AUC, modulator BJ.TLCK | AUC, modulator BJ.atoc | AUC, modulator BJ.trolox | AUC, modulator BJ.zVAD
[N-]=[N+]=[N-].[Na+] [NaN3] | −0.09559 | −0.00382 | −0.007273 | 0.07262 | −0.02123 | −0.06947 | 0.01113 | −0.01832 | −0.007837 | −0.08417 | 0.0696 | 0.005874 | −0.05229 | 0.01611 | 0.032 | −0.005135 | −0.03837 | −0.001065
COc1cc([C@@H]2c3cc4c(cc3[C@H](O)[C@H]3COC(=O)[C@H]23)OCO4)cc(OC)c1OC [Podophyllotoxin] | −0.01267 | −0.003673 | 0.003542 | 0.1228 | 0.09497 | −0.03896 | 0.01784 | 0.005868 | 0.1012 | 0.05457 | 0.09627 | −0.007043 | −0.04167 | 0.02214 | −0.02042 | 0.007072 | −0.01282 | 0.0496
C=C(C)[C@H]1Cc2c(ccc3c2O[C@@H]2COc4cc(OC)c(OC)cc4[C@@H]2C3=O)O1 [Rotenone] | −0.0266 | −0.03435 | −0.01674 | 0.1066 | 0.0838 | −0.02278 | 0.01421 | −0.01131 | 0.1439 | 0.06492 | 0.1037 | 0.005801 | −0.02888 | 0.02007 | −0.02169 | 0.05116 | −0.01075 | 0.04408
CC(/C=C/C(=O)NO)=C\[C@@H](C)C(=O)c1ccc(N(C)C)cc1 [TrichostatinA] | −0.004309 | −0.08774 | 0.09612 | 0.2588 | 0.3091 | −0.009523 | −0.008802 | −0.04203 | 0.1597 | 0.08423 | 0.05544 | −0.01861 | −0.04751 | −0.01284 | 0.02879 | −0.01806 | −0.02672 | 0.1198
CC(C)[C@@H]1NC(=O)[C@H](C)OC(=O)[C@@H](C(C)C)NC(=O)[C@@H](C(C)C)OC(=O)[C@H](C(C)C)NC(=O)[C@H](C)OC(=O)[C@@H](C(C)C)NC(=O)[C@@H](C(C)C)OC(=O)[C@H](C(C)C)NC(=O)[C@H](C)OC(=O)[C@@H](C(C)C)NC(=O)[C@@H](C(C)C)OC1=O [Vatinomycin] | 0.03326 | 0.02063 | 0.02046 | 0.3573 | 0.09595 | −0.02201 | −0.0004394 | −0.01323 | 0.1525 | −0.007847 | 0.1101 | −0.02634 | 0.01734 | 0.04946 | 0.006602 | 0.285 | 0.06867 | 0.03769
CC[C@]1(O)C[C@@H]2CN(CCc3c([nH]c4ccccc34)[C@@](C(=O)OC)(c3cc4c(cc3OC)N(C)[C@H]3[C@@](O)(C(=O)OC)[C@H](OC(C)=O)[C@]5(CC)C=CCN6CC[C@]43[C@@H]65)C2)C1 [Vinbiastine] | 0.0131 | −0.07228 | 0.001717 | 0.2328 | 0.1876 | −0.0312 | 0.008351 | −0.0006349 | 0.1715 | 0.06584 | 0.1373 | 0.008107 | −0.06176 | 0.002398 | −0.003672 | 0.1487 | −0.01145 | 0.01552
CC[C@]1(O)C[C@H]2CN(CCc3c([nH]c4ccccc34)[C@@](C(=O)OC)(c3cc4c(cc3OC)N(C=O)[C@H]3[C@@](O)(C(=O)OC)[C@H](OC(C)=O)[C@]5(CC)C=CCN6CC[C@]43[C@@H]65)C2)C1 [Vincristine] | −0.03566 | −0.03171 | −0.005016 | 0.1955 | 0.1806 | −0.03044 | 0.007944 | −0.00717 | 0.1721 | 0.06034 | 0.1255 | −0.003354 | −0.05572 | −0.002521 | −0.01255 | 0.04717 | −0.03305 | 0.01856
C[C@@H]1C[C@@H]([C@H](O)CC2CC(=O)NC(=O)C2)C(=O)[C@@H](C)C1 [cycloheximide, Cycloheximide, reference compound] | 0.03847 | 0.09461 | 0.02242 | 0.3613 | 0.2375 | 0.02122 | 0.02359 | 0.007696 | 0.1057 | 0.0775 | 0.08265 | 0.002535 | 0.03326 | 0.01475 | 0.03153 | 0.0001672 | 0.01856 | 0.02186
CCOc1ccccc1-n1c(C(C)N2CCN(C(=O)COc3ccc(Cl)cc3)CC2)nc2ccccc2c1=O (stereo not drawn) [erastin, reference compound] | 0.09348 | −0.05751 | −0.0006165 | 0.09081 | −0.1704 | −0.005058 | −0.0388 | −0.03971 | 0.1538 | 0.1115 | −0.02334 | −0.05625 | 0.1665 | 0.1892 | 0.0155 | 0.3276 | 0.2492 | −0.005301
